Measured values taken from publication PMC5865150, “Structure and evolution of the Fam20 kinases” (Nature Communications, 2018).
Where a chain is given by its changes, count along the chain named. In names and notes the source's numbering stands.

B1: human Fam20A (residues 69-529), untagged (domain or fragment, UniProt Q96MK3 69-529, looked up)
chain: HNFSRTEPRTEPAGGSHSGSSSKLQALFAHPLYNVPEEPPLLGAEDSLLASQEALRYYRRKVARWNRRHKMYREQMNLTSLDPPLQLRLEASWVQFHLGINRHGLYSRSSPVVSKLLQDMRHFPTISADYSQDEKALLGACDCTQIVKPSGVHLKLVLRFSDFGKAMFKPMRQQRDEETPVDFFYFIDFQRHNAEIAAFHLDRILDFRRVPPTVGRIVNVTKEILEVTKNEILQSVFFVSPASNVCFFAKCPYMCKTEYAVCGNPHLLEGSLSAFLPSLNLAPRLSVPNPWIRSYTLAGKEEWEVNPLYCDTVKQIYPYNNSQRLLNVIDMAIFDFLIGNMDRHHYEMFTKFGDDGFLIHLDNARGFGRHSHDEISILSPLSQCCMIKKKTLLHLQLLAQADYRLSDVMRESLLEDQLSPVLTEPHLLALDRRLQTILRTVEGCIVAHGQQSVIVDGPVEQ
notes: human Fam20A, pseudokinase, residues 69-529; Crystallised and kept with 0.25 mM ATP; also called hsFam20A; source: High Five insect cells (baculovirus), conditioned medium, purified (Ni-NTA, TEV digestion, Resource Q, size exclusion); not shown: His6, N-terminal, cleaved; MBP, N-terminal, cleaved
B2: ceFam20 (Fam20C ortholog of Caenorhabditis elegans) (enzyme)
chain: SLPHQPIPPSLGEKDLSDPFNFLFSSNKITLRKLYDLTKNVDFDQLRQNECKKNITLSKFWEKSEQRNVPEDDNWERFYSNIGSCSVYSDDQMIDNLLHDLNTSPIKHVHIMDGGTQVKFVFTFKNDKQAVFKPMRFGRDYESDPNHFYFSDFERHHAEIATFHLDRVLGFRRAIPTVGRVLNMTTELFEKAEKKLKKTFFFSPAKNFCFVSRCDYYCDTTHAICGLPDMKEGSVQVFLPDESAVPRKHNRSPYRRTYSKKNQVAEWQSSMNYCTDKVKTKRQYAHGRRLLDLVDIHILDYLIGNQDRHHFESFNVFNDLPSYAIHLDHGRAFGRSDFDDDDIILPLRQCCILRPSTFQTLMNFYSTPKSLTKALHESLSKDPAHPILAYKHYPAMERRLAKIMSHILECFESRGVAEVLVAEYNNPDVSDAEQNDEEQSEEHQDKKDDKKTV
notes: C. elegans Fam20 (ceFam20)
B3: Fam20A E299G/I300S (domain or fragment, human, UniProt Q96MK3 69-529, looked up)
chain: B1 chain with E231G, I232S
notes: human Fam20A, residues 69-529; The mutations create a site for N-linked glycosylation (Asn298-Gly299-Ser300); The limits are those of the only insect-cell Fam20A construct told in the methods; source: High Five insect cells (baculovirus), conditioned medium, purified as the WT protein
B4: purified human Fam20C (residues 63-584) of the solution studies (domain or fragment, UniProt Q8IXL6 63-584, looked up)
chain: VRGRPGEPPAASSAAGDAGWPNKHTLRILQDFSSDPSSNLSSHSLEKLPPAAEPAERALRGRDPGALRPHDPAHRPLLRDPGPRRSESPPGPGGDASLLARLFEHPLYRVAVPPLTEEDVLFNVNSDTRLSPKAAENPDWPHAGAEGAEFLSPGEAAVDSYPNWLKFHIGINRYELYSRHNPAIEALLHDLSSQRITSVAMKSGGTQLKLIMTFQNYGQALFKPMKQTREQETPPDFFYFSDYERHNAEIAAFHLDRILDFRRVPPVAGRMVNMTKEIRDVTRDKKLWRTFFISPANNICFYGECSYYCSTEHALCGKPDQIEGSLAAFLPDLSLAKRKTWRNPWRRSYHKRKKAEWEVDPDYCEEVKQTPPYDSSHRILDVMDMTIFDFLMGNMDRHHYETFEKFGNETFIIHLDNGRGFGKYSHDELSILVPLQQCCRIRKSTYLRLQLLAKEEYKLSLLMAESLRGDQVAPVLYQPHLEALDRRLRVVLKAVRDCVERNGLHSVVDDDLDTEHRAASAR
notes: human Fam20C, residues 63-584; otherwise the same construct as m2 and m8; also called WT Fam20C; hsFam20C; source: High Five insect cells (baculovirus), conditioned medium, purified

Key:
Fam20A−drFam20C complex = target: T1, Fam20A−drFam20C complex (Homo sapiens, UniProt Q96MK3); experiment: X-ray crystal structure, […] Å; format: binding; details: 0.25 mM ATP; ATP-1 bound to Fam20A in inverted orientation
T1 construct: human Fam20A residues 69-529 with zebrafish Fam20C residues 124-560, High Five cells, His6-MBP tags removed with TEV; heterotetramer; with Extracellular serine/threonine protein kinase FAM20C (Danio rerio)
T1 sequence (Q96MK3 69-529): B1 chain
T1 sequence (E7FBB8 26-545 partner): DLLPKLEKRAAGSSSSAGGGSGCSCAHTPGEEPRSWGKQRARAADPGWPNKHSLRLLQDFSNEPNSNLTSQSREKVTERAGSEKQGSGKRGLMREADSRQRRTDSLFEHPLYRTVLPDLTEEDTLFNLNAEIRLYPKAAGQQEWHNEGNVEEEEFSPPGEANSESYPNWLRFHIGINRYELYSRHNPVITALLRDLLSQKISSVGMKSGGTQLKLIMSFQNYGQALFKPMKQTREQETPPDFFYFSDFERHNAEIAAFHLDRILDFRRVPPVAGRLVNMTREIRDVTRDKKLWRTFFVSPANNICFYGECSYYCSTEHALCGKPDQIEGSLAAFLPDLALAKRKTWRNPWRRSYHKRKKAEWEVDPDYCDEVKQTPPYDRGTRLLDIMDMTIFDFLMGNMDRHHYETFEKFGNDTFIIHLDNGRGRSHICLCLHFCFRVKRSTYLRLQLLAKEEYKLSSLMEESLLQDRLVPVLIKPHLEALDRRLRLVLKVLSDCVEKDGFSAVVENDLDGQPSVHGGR

[1] = target: T2, human Fam20A−Fam20C complex (Homo sapiens, UniProt Q96MK3); experiment: X-ray crystal structure, […] Å; format: binding; details: 0.25 mM ATP; ATP-1 bound to Fam20A in inverted orientation; ATP-2 bound to Fam20A at a second site, possibly a crystallization artifact
T2 construct: Fam20A residues 69-529 and Fam20C residues 63-584, High Five cells, His6-MBP tags removed with TEV; heterodimer in crystal; with Extracellular serine/threonine protein kinase FAM20C
T2 sequence (Q96MK3 69-529): B1 chain
T2 sequence (Q8IXL6 63-584 partner): B4 chain

human Fam20B (hsFam20B) [2] = target: T3, human Fam20B (hsFam20B) (Homo sapiens, UniProt O75063); experiment: […] incorporation from [γ-32P]ATP, Sep-Pak C18, scintillation counting; format: biochemical; details: 100 uM Gal-Xyl-benzyl, 100 uM ATP, 10 mM MnCl2, pH 7.5, 30 °C
T3 construct: residues 55-402, His6-MBP fusion secreted from High Five insect cells, Ni-NTA; monomer
T3 sequence (O75063 55-402): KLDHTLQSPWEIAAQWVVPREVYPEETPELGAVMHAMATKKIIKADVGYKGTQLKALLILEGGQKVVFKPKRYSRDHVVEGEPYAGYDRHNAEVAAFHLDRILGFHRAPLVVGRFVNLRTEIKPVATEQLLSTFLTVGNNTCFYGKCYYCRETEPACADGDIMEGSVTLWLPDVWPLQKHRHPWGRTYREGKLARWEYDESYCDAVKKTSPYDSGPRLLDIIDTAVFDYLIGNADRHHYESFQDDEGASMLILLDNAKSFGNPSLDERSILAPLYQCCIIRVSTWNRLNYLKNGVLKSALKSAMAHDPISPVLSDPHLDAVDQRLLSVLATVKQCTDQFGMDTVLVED

aqFam20 = target: T4, aqFam20 (Amphimedon queenslandica, UniProt A0A1X7UVU4); experiment: as above; format: biochemical; details: 100 uM Gal-Xyl-benzyl, 100 uM ATP, 10 mM MnCl2, pH 7.5, 30 °C
T4 construct: gene 100636703; residues 31-418, His6-MBP fusion secreted from High Five insect cells, cloned from cDNA library; monomer

human Fam20B (hsFam20B) [3] = target: T5, human Fam20B (hsFam20B) (Homo sapiens, UniProt O75063, K312R); experiment: as above; format: biochemical; details: 100 uM Gal-Xyl-benzyl, 100 uM ATP, 10 mM MnCl2, pH 7.5, 30 °C; mutant activity completely abolished
T5 construct: residues 55-402, His6-MBP fusion secreted from High Five insect cells, Ni-NTA; monomer
T5 sequence (O75063 55-402 K312R): T3 sequence (O75063 55-402) with K258R

hmFam20 = target: T6, hmFam20 (Hydra vulgaris, UniProt A0ABM4BCH6); experiment: X-ray crystal structure, […] Å; details: co-crystallised with 2 mM Gal-Xyl-benzyl, 5 mM AMP-PNP, 10 mM MgCl2, pH 6.9; pocket next to the ATP-binding site; also phosphorylated by this enzyme (Figure 5b)
T6 construct: gene LOC100203383; residues 55-415, codon-optimized synthetic gene, High Five cells; for crystals His6-MBP removed with TEV and N-glycans trimmed with endoglycosidase F3; monomer

[4] = target: T7, human Fam20C (residues 63-584), untagged (human, UniProt Q8IXL6 63-584); experiment: crystal structure; human Fam20A-Fam20C complex, formed with 0.25 mM ATP and purified by size exclusion; crystals at 20 °C in 2% 1,4-dioxane, 0.1 M Bicine pH 9.0, 9% PEG 20,000; details: both partners purified
T7 construct: human Fam20C, residues 63-584; also called hsFam20C; source: High Five insect cells (baculovirus), conditioned medium, purified (Ni-NTA, TEV digestion, Resource Q, size exclusion); not shown: His6, N-terminal, cleaved; MBP, N-terminal, cleaved
T7 sequence (looked up): B4 chain

[5] = target: the molecule itself; experiment: not stated; ceFam20 (WT or F260A/P263G) in solution (Supplementary Fig. 3C)
[6] = target: B4; experiment: SEC; Fam20A mutants with human Fam20C; tetramer formation followed (Supplementary Fig. 5D); details: both partners purified
[7] = target: the molecule itself; experiment: AUC; purified Fam20C alone; oligomerises in a concentration-dependent manner; ~1 mg per ml

T4 sequence (A0A1X7UVU4 entry or part of it): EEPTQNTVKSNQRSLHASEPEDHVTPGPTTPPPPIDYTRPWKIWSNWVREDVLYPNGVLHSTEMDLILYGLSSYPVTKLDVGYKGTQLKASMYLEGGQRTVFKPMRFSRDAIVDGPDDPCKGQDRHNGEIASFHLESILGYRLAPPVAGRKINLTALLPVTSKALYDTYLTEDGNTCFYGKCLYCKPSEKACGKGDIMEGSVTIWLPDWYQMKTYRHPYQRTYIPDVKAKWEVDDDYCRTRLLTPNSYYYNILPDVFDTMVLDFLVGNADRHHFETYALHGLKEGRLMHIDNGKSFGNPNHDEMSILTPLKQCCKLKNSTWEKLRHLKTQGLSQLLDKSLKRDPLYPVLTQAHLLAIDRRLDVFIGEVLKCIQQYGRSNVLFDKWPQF
T6 sequence (A0ABM4BCH6 entry or part of it): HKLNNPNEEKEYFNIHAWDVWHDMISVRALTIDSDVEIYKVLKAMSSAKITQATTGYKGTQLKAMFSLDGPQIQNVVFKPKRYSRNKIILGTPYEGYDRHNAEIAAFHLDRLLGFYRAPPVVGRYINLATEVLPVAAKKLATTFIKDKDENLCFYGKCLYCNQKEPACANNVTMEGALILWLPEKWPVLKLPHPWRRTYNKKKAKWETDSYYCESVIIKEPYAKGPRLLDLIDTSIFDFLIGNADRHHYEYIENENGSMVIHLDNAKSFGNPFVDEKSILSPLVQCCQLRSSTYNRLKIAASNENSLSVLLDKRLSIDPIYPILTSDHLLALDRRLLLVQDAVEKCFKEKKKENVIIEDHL

## Nc1ncnc2c1ncn2[C@@H]1O[C@H](COP(=O)(O)OP(=O)(O)OP(=O)(O)O)[C@@H](O)[C@H]1O [ATP]
Fam20A−drFam20C complex
  X-ray crystal structure, 3.55 Å: In both structures, an ATP molecule (ATP-1) is bound to Fam20A in an inverted orientation
[1]
  X-ray crystal structure, 3.30 Å: In both structures, an ATP molecule (ATP-1) is bound to Fam20A in an inverted orientation

## OC[C@H]1O[C@@H](O[C@@H]2CO[C@@H](OCc3ccccc3)[C@H](O)[C@H]2O)[C@H](O)[C@@H](O)[C@H]1O [Gal-Xyl, Galβ1-4Xylβ1-O-benzyl]
Human Fam20B (hsFam20B) [2]
  32P incorporation from [γ-32P]ATP, Sep-Pak C18, scintillation counting: phosphorylate the Gal-Xyl disaccharide with efficiencies similar to human Fam20B (hsFam20B)
aqFam20
  32P incorporation from [γ-32P]ATP, Sep-Pak C18, scintillation counting: sponge (aqFam20) and hydra (hmFam20) phosphorylate the Gal-Xyl disaccharide
Human Fam20B (hsFam20B) [3]
  32P incorporation from [γ-32P]ATP, Sep-Pak C18, scintillation counting: in human Fam20B (K312R, Fig. 6c) completely abolishes kinase activity
hmFam20
  X-ray crystal structure, 2.85 Å: we also determined the structure of hmFam20 in complex with Gal-Xyl

## B1
[4]
  binding result: binds

## B2
[5]
  stoichiometry N: 2

## B3
[6]
  binding result: binds

## B4
[7]
  stoichiometry N: 2
